Biological target: mitochondrial complex I (Mus musculus, UniProt P03888+Q91WD5+Q9DC70)
Experiment: polarography: oxygen consumption in cells with complex I-specific substrates
Assay type: cell-based

mitochondrial complex I, sequence (Q91VD9 24-727): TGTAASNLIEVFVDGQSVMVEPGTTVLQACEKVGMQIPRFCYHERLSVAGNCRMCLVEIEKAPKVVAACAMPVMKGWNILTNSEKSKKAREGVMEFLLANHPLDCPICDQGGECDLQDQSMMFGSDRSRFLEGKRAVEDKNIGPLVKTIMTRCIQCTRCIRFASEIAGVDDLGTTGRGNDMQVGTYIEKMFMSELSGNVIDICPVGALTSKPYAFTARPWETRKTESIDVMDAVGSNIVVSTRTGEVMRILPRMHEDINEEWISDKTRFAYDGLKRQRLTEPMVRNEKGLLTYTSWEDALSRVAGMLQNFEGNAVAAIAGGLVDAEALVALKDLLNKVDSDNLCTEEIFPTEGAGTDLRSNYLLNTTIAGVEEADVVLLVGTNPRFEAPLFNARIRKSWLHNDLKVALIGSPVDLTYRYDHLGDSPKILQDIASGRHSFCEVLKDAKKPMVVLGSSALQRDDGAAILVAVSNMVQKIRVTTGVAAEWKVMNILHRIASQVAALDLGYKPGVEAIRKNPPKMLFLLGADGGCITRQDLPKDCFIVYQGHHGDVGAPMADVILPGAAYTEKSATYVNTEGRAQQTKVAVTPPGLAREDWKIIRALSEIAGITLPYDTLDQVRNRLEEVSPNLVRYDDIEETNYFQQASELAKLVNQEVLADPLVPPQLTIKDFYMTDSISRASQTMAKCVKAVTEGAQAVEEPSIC
mitochondrial complex I, sequence (Q91WD5 34-463): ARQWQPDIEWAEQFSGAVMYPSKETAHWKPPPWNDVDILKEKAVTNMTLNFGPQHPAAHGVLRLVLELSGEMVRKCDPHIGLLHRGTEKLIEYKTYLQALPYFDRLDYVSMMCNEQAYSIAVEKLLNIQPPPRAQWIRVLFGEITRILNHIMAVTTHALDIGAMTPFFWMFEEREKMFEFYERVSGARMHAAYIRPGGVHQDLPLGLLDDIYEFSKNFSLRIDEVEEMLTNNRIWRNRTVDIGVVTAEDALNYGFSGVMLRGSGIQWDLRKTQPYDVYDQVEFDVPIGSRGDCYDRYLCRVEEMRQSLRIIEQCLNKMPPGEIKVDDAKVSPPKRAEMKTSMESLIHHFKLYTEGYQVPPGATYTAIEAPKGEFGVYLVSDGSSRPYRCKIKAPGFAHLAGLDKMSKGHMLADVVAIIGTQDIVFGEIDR
mitochondrial complex I, sequence (P03888 whole entry): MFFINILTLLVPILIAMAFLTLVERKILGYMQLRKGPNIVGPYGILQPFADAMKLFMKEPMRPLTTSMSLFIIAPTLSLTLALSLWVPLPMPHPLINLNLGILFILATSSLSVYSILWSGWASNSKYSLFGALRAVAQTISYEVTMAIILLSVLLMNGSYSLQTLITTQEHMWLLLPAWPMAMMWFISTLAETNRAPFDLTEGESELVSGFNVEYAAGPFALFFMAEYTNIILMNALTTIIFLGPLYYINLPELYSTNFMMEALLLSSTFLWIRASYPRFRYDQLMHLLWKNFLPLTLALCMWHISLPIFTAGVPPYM
mitochondrial complex I, sequence (Q9DC70 36-224): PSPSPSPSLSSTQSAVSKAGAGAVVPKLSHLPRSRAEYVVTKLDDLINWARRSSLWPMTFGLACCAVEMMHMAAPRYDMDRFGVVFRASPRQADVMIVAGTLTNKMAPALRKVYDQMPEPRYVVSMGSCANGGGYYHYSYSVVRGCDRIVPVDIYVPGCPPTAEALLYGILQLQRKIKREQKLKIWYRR
mitochondrial complex I, sequence (Q91YT0 21-464, further chain): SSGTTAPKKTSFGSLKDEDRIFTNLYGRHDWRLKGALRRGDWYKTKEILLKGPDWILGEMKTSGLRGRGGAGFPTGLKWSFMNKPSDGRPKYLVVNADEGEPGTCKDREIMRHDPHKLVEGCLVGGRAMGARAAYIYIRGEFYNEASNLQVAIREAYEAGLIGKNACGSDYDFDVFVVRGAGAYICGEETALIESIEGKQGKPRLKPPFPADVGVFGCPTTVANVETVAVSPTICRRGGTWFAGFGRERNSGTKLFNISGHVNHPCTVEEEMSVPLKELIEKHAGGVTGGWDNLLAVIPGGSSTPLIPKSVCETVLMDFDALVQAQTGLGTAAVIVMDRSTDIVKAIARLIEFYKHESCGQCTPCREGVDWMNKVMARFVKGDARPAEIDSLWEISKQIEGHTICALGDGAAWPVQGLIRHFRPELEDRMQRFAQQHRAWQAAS

| Structure (SMILES) | IC50 [nM] |
| --- | --- |
| C/C=C(\C)[C@H](O)[C@H](C)/C=C(C)/C=C/C/C(C)=C/Cc1nc(OC)c(OC)c(O)c1C [piericidin A] | 10 |
| C=C(C)[C@H]1Cc2c(ccc3c2O[C@@H]2COc4cc(OC)c(OC)cc4[C@@H]2C3=O)O1 [rotenone] | 20 |

Reference: publication PMC3051820 (The Journal of Cell Biology, 2011)
